The target of data set [1] is T1, α-chymotrypsin from bovine pancreas type II (Bos taurus, UniProt P00766).
T1 construct: freshly prepared α-chymotrypsin from bovine pancreas type II, ≥40 U/mg; purchased; host or cells: bovine pancreas
Description: Chymotrypsin stability test. As to conditions: HPLC and LC/MS monitoring. The data set is classed as in vitro ADME. The procedure:
(§1) Assays were performed using freshly prepared α-chymotrypsin from bovine pancreas type II, ≥40 U/mg. The enzyme was initially reconstituted in HCl […] (1 μg/μL), and kept in ice until used. Peptides stock solutions were prepared in assay buffer (50 mM Tris.HCl pH=8.0, 560 μM calcium chloride, 0.1% Tween-20) containing <3% of DMSO. The reactions were performed at a 200 μL scale, in assay buffer, at final concentrations of 50 μM for peptide and […] for α-chymotrypsin (10 μL from the reconstitution solution). The mixture was incubated at 37° C. and aliquots were withdrawn in portions of 25 μL at different time points for analysis. The removed aliquots were mixed with 25 μL of water 1% TFA, and then treated with a column for detergent removal following the manufacturer's protocol (Pierce, Catalog #:87776). The rate of peptide proteolysis was monitored by HPLC and HPLC-MS analysis. Control experiments were carried out under the same conditions but using BSA instead of α-chymotrypsin.

In a further data set the target is T2, α-chymotrypsin (Bos taurus, UniProt P00766).
T2 construct: freshly prepared α-chymotrypsin from bovine pancreas type II, ≥40 U/mg; purchased; host or cells: bovine pancreas
Description: Chymotrypsin stability test. Format: in vitro ADME, bovine. Particulars: bovine, pH 8; read-out: t1/2 chymotrypsin stability assay (converted). The procedure:
as §1

The nature of data set [2]: Circular dichroism (helicity). The data set is classed as physicochemical. Particulars: CD in water, 20° C. Here is the method: Circular dichroism spectra were recorded on a CHIRASCAN™ spectrometer. Peptides were dissolved in deionized water, at a concentration of 25 μM. CD signal was monitored at 1 nm intervals from 180 to 260 nm with a 1-mm path quartz cuvette. The data reported is the average of three scans, subtracting the background. The helical content of each peptide was determined using prism 7 software, with molar ellipticity [θ][deg·cm^2dmol^−1] being calculated using the following formula: [θ]=1000000×0/(C×#of residues×l), where θ is the ellipticity read out from Chirascan, C is the concentration of peptide samples in μM, l is the pathlength of the cuvette measured in mm. The percentage helicity was calculated with formula:% Hellicity=100×[θ]222/[θ]max222, where [θ]max222=−31500×[1−([…])].

A short description of the next data set: Plasma stability test. Format: in vitro ADME. Particulars: human plasma, 37° C. Here is the method: 1 mM stock solution of the corresponded peptide was prepared in PBS buffer (pH 7.4). Next, 50 μL from […] this solution were added to 1 mL of human plasma (Sigma-Aldrich, P9523). The mixture was incubated at 37° C. with mechanical shaking at 300 rpm. Aliquots were withdrawn in portions of 150 μL at different time points for analysis and mixed with 60 μL ACN/EtOH (1:1 v/v) for plasma protein precipitation. After centrifugation at 12000 rpm for 5 min, the supernatant was collected and analyzed by HPLC and HPLC-MS.

A further data set in a line: circular dichroism. Particulars: deionized water; pH unbuffered; 20 °C; 25 uM.

“Also recorded” adds a separate entry of the source. Starred links: 1 amine or outer side, 2 acyl side, 3 side chain; linkers in the order of their positions; H or OH if unused. Positions of bridges follow the written chain, without caps; N, C: chain ends. Residues, ends and D or L forms follow the SMILES beside them. X1 = C(C[*:1])C[*:2]

Regarding `CC[C@H](C)[C@H](NC(=O)[C@H](CCCCN)NC(=O)[C@@H]1CSCCCSC[C@H](NC(=O)[C@@H](NC(C)=O)C(C)C)C(=O)N[C@@H](CC(N)=O)C(=O)N[C@@H](CCC(=O)O)C(=O)N[C@@H](CCC(=O)O)C(=O)N1)C(=O)N[C@@H](Cc1c[nH]c2ccccc12)C(=O)N[C@@H](CCCCN)C(=O)N[C@@H](CCCCN)C(=O)N[C@@H](CC(N)=O)C(=O)N[C@H](C(=O)N1CCC[C@H]1C(=O)N[C@@H](Cc1ccccc1)C(=O)N[C@@H](CC(C)C)C(N)=O)[C@@H](C)O` [24 (GN-Z24), V[CNEEC](CH2)3KIWKKNTPFL] (Ac-VCNEECKIWKKNTPFL-NH2; linker 2-6 via X1; C-terminus assumed), the “stability to chymotrypsin proteolysis” value in data set [1] is “enhanced stability; also recorded: marked protection”. Moreover, at α-chymotrypsin, the half-life at 50 μM was 20.5 h.
For the compound “Ac-TVDKIASALSVLAEEVPQN-NH2 [compound 1, reference compound]”, the helicity (in data set [2]; in the data set “circular dichroism”) was 4.8% in each case. For the same compound, in “Plasma stability test”, the “time to full degradation in plasma” value stood at 5 min.

(Values after patent publication US11345725B2, “Bis-thioether stapled peptides as inhibitors of PRC2 function” (Research Foundation of the City University of New York, priority 2019, dated 2022).)
